Results from patent US5965088A, “Method for providing rapid disinfection of contact lenses” (priority 1997, dated 1999).
“And” between values parts separate entries of the source, which are not always exact repeats. Identical values can stand only once.

Experiments:
[1] = Ocular irritation screening study in the rabbit (Draize score, soaked soft lenses); assay type: in vivo; set-up: key to Draize macroscopic ocular score (weighted total): Draize weighted total score; max 110 per eye; conditions: rabbit, in vivo, topical or ocular; 4 ppm formulation; rabbits; read-out: safety margin relative to initial onset of abnormal ocular health
Experimental: (§1) A series of formulations were prepared in which the amount of alexidine were, respectively 4 ppm (test 1), 6 ppm (test 2), 8 ppm (test 3), 10 ppm (test 4), 12 ppm (test 5), 15 ppm (test 6), 18 ppm (test 7), 22 ppm (test 8), 27 ppm (test 9), 33 ppm (test 10), 40 ppm (test 11) and 50 ppm (test 12). These test solutions of alexidine were used in soaking J&J Sure Vue® (etafilcon A) lenses (soft lenses) in 2.5 mL of solution for 1 week or more in order to reach maximal alexidine uptake.
(§2) An ocular irritation screening study was conducted in the rabbit to determine the threshold for ocular irritation. Eyes treated with the lenses were compared to a contralateral control eye. Treated lenses were placed on the right eye of rabbits; control lenses were placed on the left eye. Any lenses displaced from the eyes during the lens wear day were reinserted after rinsing with 0.9% sodium chloride USP solution (SC). Eyes were examined with the aid of a direct light source before lens placement, at 50-70 minutes, 7-8 hours, 23-24 hours, and 30-32 hours after placement. Macroscopic observations were recorded in accordance with criteria in the Draize^* score system. The maximum total score is the sum of all scores obtained for the cornea, iris, and conjunctivae. Total maximum score possible is 110 per eye, 80 with respect to the cornea, 10 with respect to the iris, and 20 with respect to the conjunctivae.
(§3) *Draize, J. H., G. Woodward and H. O. Calvery. 1944. Methods for the study of irritation and toxicity of substances applied topically to the skin and mucous membranes. J. Pharmacol. Exp. Ther. 82:377-390.

[2] = test system: rabbit eye (cornea, iris, conjunctivae); assay: as above; assay type: in vivo; set-up: key to Draize macroscopic ocular score (weighted total): Draize weighted total score; max 110 per eye; conditions: for Draize macroscopic ocular score (weighted total): right (test) eye
Experimental: as §1, §2, §3

In the case of CCCCC(CC)CNC(=N)NC(=N)NCCCCCCNC(=N)NC(=N)NCC(CC)CCCC.Cl.Cl (stereo not drawn) [Alexidine.2HCl, 1,1 '-hexamethylenebis(5-(2-ethylhexyl)-biguanide) dihydrochloride], the selectivity ratio [1] is reported as 2.5, the “safety in disinfecting soft lenses” value ([2]; 4.0 ppm, based on rabbit studies) is reported as “very safe for human use in disinfecting soft lenses” and the “Draize macroscopic ocular score (weighted total)” value (“Draize macroscopic ocular score” below) ([2]; 4 ppm, 7-8 hours post lens) is reported as 2. The “Draize macroscopic ocular score” value ([2]; 4 ppm, 23-24 hours post lens) was 2, the “Draize macroscopic ocular score” value ([2]; 4 ppm, 30-32 hours post lens) was 2 and the “Draize macroscopic ocular score” value ([2]; 4 ppm, 50-70 minutes post lens) was 2. The “Draize macroscopic ocular score” value ([2]; 6 ppm, 7-8 hours post lens) was 2, the “Draize macroscopic ocular score” value ([2]; 6 ppm, 23-24 hours post lens) was 2 and the “Draize macroscopic ocular score” value ([2]; 6 ppm, 30-32 hours post lens) was 2. For the same compound, the “Draize macroscopic ocular score” value ([2]; 6 ppm, 50-70 minutes post lens) was 2, the “Draize macroscopic ocular score” value ([2]; 8 ppm, 7-8 hours post lens) was 2 and the “Draize macroscopic ocular score” value ([2]; 8 ppm, 23-24 hours post lens) was 2. The “Draize macroscopic ocular score” value ([2]; 8 ppm, 30-32 hours post lens) was 2, the “Draize macroscopic ocular score” value ([2]; 8 ppm, 50-70 minutes post lens) was 2 and the “Draize macroscopic ocular score” value ([2]; 10 ppm, 7-8 hours post lens, dihydrochloride) was 4 and 2. For the same compound, the “Draize macroscopic ocular score” value ([2]; 10 ppm, 50-70 minutes post lens) was 2, the “Draize macroscopic ocular score” value ([2]; 12 ppm, 7-8 hours post lens) was 2 and the “Draize macroscopic ocular score” value ([2]; 12 ppm, 23-24 hours post lens) was 2. The “Draize macroscopic ocular score” value ([2]; 12 ppm, 30-32 hours post lens) was 2, the “Draize macroscopic ocular score” value ([2]; 12 ppm, 50-70 minutes post lens) was 2 and the “Draize macroscopic ocular score” value ([2]; 15 ppm, 7-8 hours post lens) was 4. For the same compound, the “Draize macroscopic ocular score” value ([2]; 15 ppm, 30-32 hours post lens) was 2, the “Draize macroscopic ocular score” value ([2]; 15 ppm, 50-70 minutes post lens, dihydrochloride) was 2 and 4 and the “Draize macroscopic ocular score” value ([2]; 18 ppm, 7-8 hours post lens) was 6. The “Draize macroscopic ocular score” value ([2]; 18 ppm, 23-24 hours post lens) was 2, the “Draize macroscopic ocular score” value ([2]; 18 ppm, 30-32 hours post lens) was 2 and the “Draize macroscopic ocular score” value ([2]; 18 ppm, 50-70 minutes post lens) was 2. The “Draize macroscopic ocular score” value ([2]; 22 ppm, 7-8 hours post lens) was 11, the “Draize macroscopic ocular score” value ([2]; 22 ppm, 23-24 hours post lens) was 2 and the “Draize macroscopic ocular score” value ([2]; 22 ppm, 30-32 hours post lens) was 2. The “Draize macroscopic ocular score” value ([2]; 22 ppm, 50-70 minutes post lens) was 2, the “Draize macroscopic ocular score” value ([2]; 27 ppm, 50-70 minutes post lens) was 2 and the “conjunctival reaction clearly defined” value ([2]; lenses soaked in solution) was 15 ppm. For the same compound, the corneal opacity observed ([2]; lenses soaked in solution) was 27 ppm, the iridial involvement observed ([2]; lenses soaked in solution) was 22 ppm and the “first signs of increased ocular toxicity (conjunctival reactions)” value ([2]; lenses soaked, after 7-8 hours of lens wear) was 10 ppm.
